Entries after “also recorded” stand apart in the source; their conditions may differ. Read-outs that look alike come from different tables or passages of the source.
How the values were obtained:
[1] = system: primary neuronal cultures from cortex; experiment: NMDA neurotoxicity in cerebral cortical cultures (trypan blue, % cell death); format: cell-based, Sprague-Dawley rats; settings: for protection against NMDA neurotoxicity (in words): 10 μM 1,5-dihydroxyisoquinoline, 1 mM novobiocin, Table 1A and summary statements
Description: To determine directly if PARS activation participates in NMDA neurotoxicity, we monitored neurotoxicity elicited by NMDA in cerebral cortical cultures in which NO synthase inhibitors provide marked protection (V. L. Dawson et al., Proc. Natl. Acad. Sci. U.S.A. 88, 6368 (1991); V. L. Dawson et al., J. Neurosci. 13, 2651 (1993)) (FIG. 2).
Table 1A, PARS inhibitors were applied 30 min before and during NMDA application. In Table 1B, PARS inhibitors were applied after NMDA administration at the indicated times for 20 to 24 hr. Data are the means ±SEM (n≥8). Each data point represents 4,000-12,000 neurons counted. *p≤0.001 Student's t-test.
(§1) Primary neuronal cultures from cortex were prepared from fetal Sprague-Dawley rats, gestation day 13-14. Mature neurons (grater than 21 days in culture) were used in all experiments.
(§2) Neurotoxicity was determined by exposing the neurons to the various test solutions as previously described (Dawson, supra). […], SNP or SNAP were applied to the cells for 5 min, then the cells were washed and replaced with MEM, 21 mM glucose overnight in the incubator. Twenty to 24 hr after exposure to test solutions, the neurons were exposed to 0.4% trypan blue in CSS to stain the residue of non-viable cells and to assess toxicity. Viable and non-viable cells were counted. At least two separate experiments utilizing four separate wells were performed for each data point shown. Significant overall values were obtained by using a one-way, between groups analysis of variance. Specific comparisons on all possible pair combinations were made with the Student's t-test for independent means.

[2] = molecular target: PARS (poly(ADP-ribose) synthetase) (Rattus norvegicus, UniProt P27008); experiment: PARS activity in rat brain nuclear extracts; format: biochemical; settings: for activity at 20 µM: read-out: PARS activity, % of basal levels
Description: Inhibitors of poly(ADP-ribose) synthetase are compounds which compete for the substrate binding site of poly(ADP-ribose) synthetase or other sites on the enzyme, and include both reversible and irreversible inhibitors. The present invention contemplates the use of any physiologically acceptable inhibitor which inhibits poly(ADP-ribose) synthetase activity. The effectiveness of a compound, and its relative potency as a poly(ADP-ribose) synthetase inhibitor, can be tested and routinely determined by measuring inhibition of poly(ADP-ribose) synthetase activity. Poly(ADP-ribose) synthetase activity can be assayed according to the method of Schranfstatter, et al., J. Clin. Inves. 77, 1312 (1986).
Whole brains from 1-day old rats were homogenized in 20% (w/v) buffer A [50 mM Tris-HCl (pH 7.4), 1 mM EDTA, 1 mM DTT, 50 mM NaCl, 0.25M sucrose, 0.2 mM phenylmethylsulfonyl fluoride, 1 μg/ml each of chymostatin, leupeptin, pepstatin and trypsin inhibitor]. The homogenate was centrifuged at 1000 g for 15 min. The pellet was washed with buffer A and centrifuged again. The washed pellet, termed nuclear fraction, was resuspended in buffer A. PARS activity was assayed according to I. U. Schranfstatter, et al., J. Clin. Inves. 77, 1312 (1986). Each 50 μl assay mixture contained 10 μg of the nuclear protein fraction and [adenylate-^32 P]

[3] = system: pancreatic islet cells; settings: Kallman et al. 1992; cited from earlier work
[4] = system: PARS; settings: cited from earlier work; for relative potency as PARS inhibitor (in words): family of benzamide and its derivatives
[5] = system: brain NOS; experiment: Nitrite formation in human kidney 293 cells stably transfected with brain NOS cDNA; format: cell-based; settings: for nitrite formation: A23187 (10 μM), 2 hr, inhibitors 100 μM, n=3
Description: (§3) To ascertain whether NO itself elicits neurotoxicity by activation of PARS, we administered the NO releasers SNP and S-nitroso-N-acetylpenicillamine (SNAP). […] In human kidney 293 cells stably transfected with the cDNA of brain.

[6] = Direct interaction of benzamide with SNP/NO (HPLC recovery); format: physicochemical
[7] = system: primary neuronal cultures from cortex; experiment: SNP and SNAP (NO releaser) neurotoxicity in cortical neuronal cultures; format: cell-based, Sprague-Dawley rats; settings: for inhibition at 100 µM: Rattus norvegicus, Primary cortical neuron
Description: as §1, §2, §3

[8] = Table 1A, 500 μM NMDA + 100 μM compound, 30 min before and during NMDA
[9] = Table 1A, 500 μM NMDA + 1 mM compound, 30 min before and during NMDA

PARS (poly(ADP-ribose) synthetase), sequence (P27008 whole entry): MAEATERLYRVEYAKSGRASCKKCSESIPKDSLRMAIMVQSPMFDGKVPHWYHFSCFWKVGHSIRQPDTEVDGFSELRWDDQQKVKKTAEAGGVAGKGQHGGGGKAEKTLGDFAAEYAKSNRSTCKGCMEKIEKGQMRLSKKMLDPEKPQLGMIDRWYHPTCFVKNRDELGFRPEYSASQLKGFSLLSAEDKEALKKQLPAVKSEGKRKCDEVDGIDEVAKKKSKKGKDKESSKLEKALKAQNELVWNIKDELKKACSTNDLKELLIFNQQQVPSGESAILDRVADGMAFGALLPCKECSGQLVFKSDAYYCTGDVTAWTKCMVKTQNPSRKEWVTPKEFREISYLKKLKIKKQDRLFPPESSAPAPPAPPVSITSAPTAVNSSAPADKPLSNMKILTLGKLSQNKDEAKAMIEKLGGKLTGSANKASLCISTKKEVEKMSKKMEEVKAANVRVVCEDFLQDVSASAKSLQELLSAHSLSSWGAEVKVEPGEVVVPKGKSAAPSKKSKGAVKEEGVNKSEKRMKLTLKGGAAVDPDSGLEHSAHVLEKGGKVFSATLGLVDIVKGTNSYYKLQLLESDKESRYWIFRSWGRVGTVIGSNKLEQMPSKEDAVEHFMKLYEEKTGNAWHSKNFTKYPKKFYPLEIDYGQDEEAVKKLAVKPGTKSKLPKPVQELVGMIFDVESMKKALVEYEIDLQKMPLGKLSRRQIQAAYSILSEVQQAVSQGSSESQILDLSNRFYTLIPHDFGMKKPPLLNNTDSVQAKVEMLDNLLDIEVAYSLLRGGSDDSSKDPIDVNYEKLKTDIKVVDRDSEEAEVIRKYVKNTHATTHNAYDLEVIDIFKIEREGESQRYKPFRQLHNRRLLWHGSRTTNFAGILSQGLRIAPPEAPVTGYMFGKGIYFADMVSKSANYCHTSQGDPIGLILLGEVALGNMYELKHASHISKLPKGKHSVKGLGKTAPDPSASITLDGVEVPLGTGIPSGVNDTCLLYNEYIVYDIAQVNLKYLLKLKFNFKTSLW

What does the source list for `Oc1cccc2c(O)nccc12` [1,5-dihydroxyisoquinoline]?
protection against NMDA neurotoxicity (in words) [1]: neuroprotective; protection against NMDA neurotoxicity (in words) ([1]; listed as 1,5-dihydroxy-isoquinoline): found to prevent neurotoxicity; % Cell Death (± S.E.M.) ([1]; Table 1A, 500 μM NMDA + 10 μM compound, 30 min before and during NMDA): 39.0 ± 4.5%; activity at 20 µM ([2]; inhibitor 20 μM, NO-treated DNA, FIG. 1A): < 5%

With `NC(=O)c1cccc(N)c1` [3-aminobenzamide] as the compound, how does the “protection against NMDA neurotoxicity (in words)” value [1] read?
Its value is “found to have the ability to prevent neurotoxicity; also recorded: somewhat less protection”.

And the “% Cell Death (± S.E.M.)” value [1, 8]?
The value was 45.9 ± 5.1%.

And the “protection of pancreatic islet cells from macrophage cytotoxicity” value [3]?
Its value is “protects pancreatic islet cells from macrophage cytotoxicity”.

And the “relative potency as PARS inhibitor (in words)” value ([4]; relative to benzamide)?
Its value is “about half as potent”.

Which activity at 20 µM [2] does the source give for `Nc1ccc2c3c(cccc13)C(=O)NC2=O` [4-amino-1,8-naphthalimide] here?
Its activity at 20 µM is < 5%.

For `NC(=O)c1ccc(N)cc1` [4-aminobenzamide], which “% Cell Death (± S.E.M.)” value [1, 8] is on record?
Its value is 55.8 ± 7.6%.

And the “fold weaker than benzamide as PARS inhibitor” value ([4]; relative to benzamide)?
Its value is 50-100 fold.

With `CNc1ccc2oc(C[C@H]3O[C@@]4(CC[C@H]3C)O[C@H]([C@H](C)C(=O)c3ccc[nH]3)[C@H](C)C[C@H]4C)nc2c1C(=O)O` [A23187] as the compound, how does the nitrite formation [5] read?
Its nitrite formation is 17.1±2.1 μM nitrite.

What does the source list for `O=C(O)c1ccccc1` [Benzoic acid]?
protection against NMDA neurotoxicity (in words) [1]: found not to have any activity; protection against NMDA neurotoxicity (in words) ([1]; listed as benzoic acid): inactive; % Cell Death (± S.E.M.) [1, 9]: 58.9 ± 5.7%; relative potency as PARS inhibitor (in words) ([4]; relative to benzamide): inactive

Which “% Cell Death (± S.E.M.)” value ([1]; Table 1A, 500 μM NMDA alone) does the source give for `CN[C@H](CC(=O)O)C(=O)O` [NMDA, N-methyl- D-aspartate] here?
The value was 57.1 ± 4.7%.

What about the “% Cell Death (± S.E.M.)” value ([1]; Table 1B, 500 μM NMDA alone) of the same compound?
Its value is 74.7 ± 7.8%.

For `[NH-]c1c[n+](N2CCOCC2)no1` [SIN-1, 3-morpholinosyndnonimine], which “effect on PARS activity by itself” value ([2]; SNP 1 mM, SIN-1 1 mM or untreated DNA, alone) is on record?
The value was “no effects on PARS”.

Which results are given for `NC(=O)c1ccccc1` [benzamide]?
interaction with NO [6]: did not interact; also recorded: did not interact with NO; recovery of benzamide after incubation with SNP ([6]; benzamide 1 mM, SNP 1 mM, five days, 25° C., HPLC C18, 7200 min): 100%; protection against NMDA neurotoxicity (in words) [1]: found to prevent neurotoxicity; protection against NMDA neurotoxicity (in words) ([1]; listed as Benzamide): greatest degree of protection; protection against NMDA neurotoxicity ([1]; 50 μM): no significant protection was detected; reduction of NMDA mediated neurotoxicity ([1]; 100 μM, FIG. 2 legend): reduces; greater protection than at 100 μM ([1]; 500 μM versus 100 μM): about 30%; inhibition at 100 µM ([1]; Rattus norvegicus, Primary cortical neuron, read-out: protection against NMDA neurotoxicity): 40 to 50%; % Cell Death (± S.E.M.) ([1]; Table 1A, 500 μM NMDA + 50 μM compound, 30 min before and during NMDA): 60.1 ± 12.1%; % Cell Death (± S.E.M.) [1, 8]: 39.5 ± 5.0%; % Cell Death (± S.E.M.) ([1]; Table 1A, 500 μM NMDA + 500 μM compound, 30 min before and during NMDA): 21.9 ± 4.1%; % Cell Death (± S.E.M.) ([1]; Table 1B, 100 μM compound applied 5 min after 500 μM NMDA): 35.6 ± 8.7%; % Cell Death (± S.E.M.) ([1]; Table 1B, 100 μM compound applied 30 min after 500 μM NMDA): 40.4 ± 5.6%; % Cell Death (± S.E.M.) ([1]; Table 1B, 100 μM compound applied 1 hour after 500 μM NMDA): 43.4%; IC50 ([4]; in vitro, Banasik et al. 1992, read-out: IC50 for inhibiting PARS in vitro): 22 µM; reduction of SNAP mediated neurotoxicity ([7]; 100 μM, SNAP (300 μM), FIG. 2 legend): reduces; reduction of SNP mediated neurotoxicity ([7]; 100 μM, SNP (500 μM), FIG. 2 legend): reduces; inhibition at 100 µM ([7]; SNAP, read-out: reduction of SNAP neurotoxicity): 45 to 50%; inhibition at 100 µM ([7]; SNP, read-out: reduction of SNP neurotoxicity): 45 to 50%

Which “protection against NMDA neurotoxicity (in words)” value [1] does the source give for `CO[C@@H]1[C@@H](OC(N)=O)[C@@H](O)[C@H](Oc2ccc3c(O)c(NC(=O)c4ccc(O)c(CC=C(C)C)c4)c(=O)oc3c2C)OC1(C)C` [novobiocin] here?
Its value is “found not to have any activity in preventing neurotoxicity; also recorded: ineffective”.

And the “% Cell Death (± S.E.M.)” value [1, 9]?
Its value is 62.4 ± 8.9%.

With nitroarginine as the compound, how does the “effect on NOS / stimulated nitrite levels” value ([5]; 100 μM) read?
The value was “abolished”.

And the nitrite formation [5]?
Its nitrite formation is 3.9±1.6 μM nitrite.
